Measured values: article PMC3773398, “The Subcellular Localization of the Receptor for Platelet-Activating Factor in Neutrophils Affects Signaling and Activation Characteristics” (Clinical and Developmental Immunology, 2013)

How the values were obtained:
[1] = molecular target: T1, PAFR (receptor for platelet-activating factor) (Homo sapiens, UniProt P25105); experiment: antagonism of PAF ([…])-induced superoxide release in human neutrophils; type: cell-based
T1 construct: gene PTAFR

[2] = molecular target: T1, PAFR (receptor for platelet-activating factor); experiment: agonist-induced superoxide release (isoluminol chemiluminescence) in human neutrophils, abolished by PAFR antagonist WEB2086; Ca2+ mobilization EC50 […]; type: cell-based

T1 sequence (P25105 whole entry): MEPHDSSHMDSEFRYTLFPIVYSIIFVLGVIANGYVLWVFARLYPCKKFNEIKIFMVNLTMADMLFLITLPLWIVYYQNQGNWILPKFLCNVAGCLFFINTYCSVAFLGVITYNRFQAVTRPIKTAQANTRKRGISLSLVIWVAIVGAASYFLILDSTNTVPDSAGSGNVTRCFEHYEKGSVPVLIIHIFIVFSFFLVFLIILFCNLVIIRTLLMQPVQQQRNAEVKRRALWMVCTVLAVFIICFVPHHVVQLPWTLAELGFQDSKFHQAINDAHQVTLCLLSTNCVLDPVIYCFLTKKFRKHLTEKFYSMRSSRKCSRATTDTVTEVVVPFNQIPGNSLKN

Q: Which “antagonism of PAF (100 nM)-induced superoxide release in human neutrophils” value [1] does the source give for `Cc1nnc2n1-c1sc(CCC(=O)N3CCOCC3)cc1C(c1ccccc1Cl)=NC2` [WEB2086] here?
A: a specific PAFR antagonist (WEB2086) completely and selectively abolished the release of ROS upon PAF stimulation

Q: How did the EC50 [2] turn out when `CCCCCCCCCCCCCCCCOC[C@H](COP(=O)([O-])OCC[N+](C)(C)C)OC(C)=O` [PAF] was run?
A: ~800 nM
